The source of these data is patent US5258362A, “Renin inhibiting compounds” (Abbott Laboratories, priority 1992, dated 1993).

Molecules are shown by their SMILES.

One may read the IC50 as the point on the concentration scale where inhibition reaches its midpoint.

The target in the assay is T1, human renal renin (Homo sapiens, UniProt P00797).
T1 construct: human renal renin, free from acid proteolytic activity; from tissue; host or cells: human kidney (from the word 'renal')
T1 sequence (P00797 67-406): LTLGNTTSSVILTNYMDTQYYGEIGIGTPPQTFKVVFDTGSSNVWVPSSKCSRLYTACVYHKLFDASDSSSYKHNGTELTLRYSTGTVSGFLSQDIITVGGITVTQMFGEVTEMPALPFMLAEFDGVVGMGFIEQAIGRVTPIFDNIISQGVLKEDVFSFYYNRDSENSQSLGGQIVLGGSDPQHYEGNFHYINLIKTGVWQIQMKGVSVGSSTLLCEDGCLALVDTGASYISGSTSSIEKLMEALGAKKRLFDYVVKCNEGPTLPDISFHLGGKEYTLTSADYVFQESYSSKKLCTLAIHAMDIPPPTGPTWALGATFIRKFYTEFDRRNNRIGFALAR
As to the kind of experiment: Inhibition of human renal renin in vitro (angiotensin I formed, measured by radioimmunoassay). Type of assay: biochemical. Conditions: human renal renin with renin substrate (human angiotensinogen), 37° C., pH 6.0. The protocol: At the end of the incubation, the amount of angiotensin I formed is measured by radioimmunoassay and the molar concentration required to cause 50% inhibition, expressed as the IC50 is calculated.
Molecule `CC[C@H]1CO[C@@H]1[C@H](O)[C@H](CC1CCCCC1)NC(=O)[C@H](CC(C)C)NC(=O)[C@@H](CC(=O)N1CCN(C)CC1)Cc1ccccc1` [Example 163, (2R)-2-Benzyl-3-(4-methylpiperazin-1-ylcarbonyl)propionyl-leucine Amide of (1R,2S,2'S,3'S)-2-Amino-3-cyclohexyl-1-[3'-(ethyl)oxetan-2'-yl]-1-(hydroxy)propane] had an IC50 of 510 pM.

For `CC[C@H]1CO[C@@H]1[C@H](O)[C@H](CC1CCCCC1)NC(=O)C(Cc1cscn1)NC(=O)[C@H](Cc1ccccc1)CS(=O)(=O)N1CCN(C)CC1` (stereo partly drawn) [Example 68, (2S) 2-Benzyl-3-(1-methyl-piperazin-4-ylsulfonyl)propionyl-(4-thiazolyl)alanineAmide of (1R,2S,2'S,3'S)-2-Amino-3-cyclohexyl-1-[3'-(ethyl)oxetan-2'-yl]-1-(hydroxy)propane], the IC50 worked out at 190 pM.

Consider `CC[C@H]1CO[C@@H]1[C@H](O)[C@H](CC1CCCCC1)NC(=O)C(C)NC(=O)[C@H](Cc1ccccc1)CS(=O)(=O)N1CCN(C)CC1` (stereo partly drawn) [Example 191, (2S) 2-Benzyl-3-(1-methyl-piperazin-4-ylsulfonyl)propionylalanine Amide of (1R,2S,2'S,3'S)-2-Amino-3-cyclohexyl-1-[3'-(ethyl)oxetan-2'-yl]-1-(hydroxy)propane], for which the IC50 came to 580 pM.

`CCCC[C@H](O[C@@H](Cc1ccccc1)C(=O)N1CCC(OCOC)CC1)C(=O)N[C@@H](CC1CCCCC1)[C@@H](O)[C@H]1OC[C@@H]1C(C)C` [Example 72, (2S)-[(1S)-[(Methoxymethoxy)piperidin-1-yl]carbonyl-2-phenylethoxy]hexanoicAcid Amide of (1R,2S,2'S,3'S)-2-Amino-3-cyclohexyl-1-[3'-(isopropyl)oxetan-2'-yl]-1-(hydroxy)propane] returned an IC50 of 800 pM.

With `CC[C@H]1CO[C@@H]1[C@H](O)[C@H](CC1CCCCC1)NC(=O)[C@H](CC(C)C)NC(=O)[C@H](Cc1ccccc1)Cn1ccnc1` [Example 182, (2R)-2-Benzyl-3-(imidazol-1-yl)propionyl-Leucine Amide of (1R,2S,2'S,3'S)-2-Amino-3-cyclohexyl-1-[3'-(ethyl)oxetan-2'-yl]-1-(hydroxy)propane], the IC50 amounted to 650 pM.

`CCCC[C@H](NC(=O)C(Cc1ccccc1)Cc1ccccc1)C(=O)N[C@@H](CC1CCCCC1)[C@@H](O)[C@H]1OC[C@@H]1CC` [Example 188, Dibenzylacetyl-(nor)Leucine Amide of (1R,2S,2'S,3'S)-2-Amino-3-cyclohexyl-1-[3'-(ethyl)oxetan-2'-yl]-1-(hydroxy)propane] displayed an IC50 of 680 pM.

On to `CC[C@H]1CO[C@@H]1[C@H](O)[C@H](CC1CCCCC1)NC(=O)[C@H](CC(C)C)NC(=O)C(Cc1ccccc1)Cc1ccccc1` [Example 183, Dibenzylacetyl-Leucine Amide of (1R,2S,2'S,3'S)-2-Amino-3-cyclohexyl-1-[3'-(ethyl)oxetan-2'-yl]-1-(hydroxy)propane], for which the IC50 turned out to be 1200 pM.

For the molecule `CCCC[C@H](NC(=O)[C@H](Cc1ccccc1)Cn1ccnc1)C(=O)N[C@@H](CC1CCCCC1)[C@@H](O)[C@H]1OC[C@@H]1CC` [Example 189, (2R)-2-Benzyl-3-(imidazol-1-yl)propionyl-(nor)Leucine Amide of (1R,2S,2'S,3'S)-2-Amino-3-cyclohexyl-1-[3'-(ethyl)oxetan-2'-yl]-1-(hydroxy)propane], half-maximal inhibition (IC50) was put at 460 pM.

Molecule `CC[C@H]1CO[C@@H]1[C@H](O)[C@H](CC1CCCCC1)NC(=O)C(Cc1cscn1)NC(=O)[C@H](Cc1ccccc1)Cn1ccnc1` (stereo partly drawn) [Example 76, (2R)-2-Benzyl-3-(imidazol-1-yl)propionyl-(4-thiazolyl)alanine Amide of (1R,2S,2'S,3'S)-1-Amino-3-cyclohexyl-1-[3'-(ethyl)oxetan-2'-yl]-1-(hydroxy)propane] came in with an IC50 of 280 pM.
